According to DBAASP:
Values after ≈ are worked out from the molar mass of the structure shown.

Tests used:
Assay in all cases: ≥ marks a high value that may be exact or a test limit, other limits are often not marked, values filed in µg/mL are converted to µM
[1] = tested on: Candida albicans ATCC 2002
[2] = tested on: Staphylococcus aureus ATCC 25923
[3] = tested on: Escherichia coli ATCC 25922
[4] = tested on: Pseudomonas aeruginosa CMCCB 10104
[5] = tested on: Candida albicans ATCC 90028
[6] = tested on: Escherichia coli ATCC 25726
[7] = tested on: Klebsiella pneumoniae ATCC 700603
[8] = tested on: Pseudomonas aeruginosa ATCC 27853

Row | Structure (SMILES) | MIC [1] | MIC [2] | MIC [3] | MIC [4] | MIC [5] | MIC [6] | MIC [7] | MIC [8]
1 | CC[C@H](C)[C@H](NC(=O)CN)C(=O)N[C@@H](Cc1ccccc1)C(=O)N[C@@H](CC(C)C)C(=O)N[C@@H](CCCCN)C(=O)N[C@H](C(=O)N[C@@H](CC(C)C)C(=O)NCC(=O)N[C@H](C(=O)NCC(=O)N[C@@H](CCCCN)C(=O)N[C@@H](CCCCN)C(=O)N[C@H](C(=O)N[C@@H](CC(C)C)C(=O)N[C@H]1CSSC[C@@H](C(=O)O)NC(=O)[C@H](CC(C)C)NC(=O)CNC(=O)[C@H](CO)NC(=O)[C@H](C(C)C)NC(=O)CNC1=O)C(C)C)C(C)C)C(C)C [GIFLKVLGVGKKVLCGVSGLC] | 5.17 µM (≈ 10.8 µg/mL) | 2.58 µM (≈ 5.39 µg/mL) | 5.17 µM (≈ 10.8 µg/mL) | 10.3 µM (≈ 21.6 µg/mL) |  |  |  | 
2 | CC[C@H](C)[C@H](NC(=O)CN)C(=O)NCC(=O)N[C@@H](CCCCN)C(=O)N[C@@H](Cc1ccccc1)C(=O)N[C@@H](CC(C)C)C(=O)N[C@@H](Cc1cnc[nH]1)C(=O)N[C@@H](CO)C(=O)N[C@@H](C)C(=O)NCC(=O)N[C@@H](CCCCN)C(=O)N[C@@H](Cc1ccccc1)C(=O)NCC(=O)N[C@@H](CCCCN)C(=O)N[C@@H](C)C(=O)N[C@@H](Cc1ccccc1)C(=O)N[C@@H](CC(C)C)C(=O)NCC(=O)N[C@@H](CCC(=O)O)C(=O)N[C@H](C(=O)N[C@@H](CCSC)C(=O)N[C@@H](CCCCN)C(=O)N[C@@H](CO)C(=O)O)C(C)C [GIGKFLHSAGKFGKAFLGEVMKS] |  | > 200 µM | 50 µM (≈ 120 µg/mL) |  | ≥ 100 µM | ≥ 50 µM |  | 
3 | CC[C@H](C)[C@H](N)C(=O)N1CCC[C@H]1C(=O)N[C@@H](Cc1c[nH]c2ccccc12)C(=O)N[C@@H](CCCCN)C(=O)N[C@@H](CC(C)C)C(=O)N1CCC[C@H]1C(=O)N[C@@H](C)C(=O)N[C@H](C(=O)N[C@@H](Cc1ccccc1)C(=O)N[C@@H](CCCN=C(N)N)C(=O)N1CCC[C@H]1C(=O)N[C@H](C(=O)N[C@@H](CCC(=O)O)C(=O)N[C@@H](CCCN=C(N)N)C(=O)N1CCC[C@H]1C(=O)N[C@@H](Cc1ccccc1)C(=O)N[C@@H](CO)C(=O)N[C@@H](CCCCN)C(=O)N1CCC[C@H]1C(=O)N[C@@H](Cc1ccccc1)C(=O)N[C@@H](CS)C(=O)N[C@@H](CCCN=C(N)N)C(=O)N[C@@H](CCCCN)C(=O)N[C@@H](CC(=O)O)C(=O)O)C(C)C)[C@@H](C)O [IPWKLPATFRPVERPFSKPFCRKD] | ≥ 34.3 µM | 34.3 µM (≈ 100 µg/mL) | > 34.3 µM | ≥ 34.3 µM |  |  |  | 
4 | CC[C@H](C)[C@H](NC(=O)CNC(=O)[C@H](CCCCN)NC(=O)[C@H](C)NC(=O)[C@@H](NC(=O)[C@H](CCCCN)NC(=O)[C@H](CCCCN)NC(=O)[C@H](CC(C)C)NC(=O)[C@@H](NC(=O)[C@H](CC(=O)O)NC(=O)[C@H](CCCCN)NC(=O)[C@@H](NC(=O)[C@H](Cc1ccccc1)NC(=O)CNC(=O)[C@@H]1CCCN1C(=O)[C@@H](NC(=O)[C@H](CCCCN)NC(=O)[C@@H](N)CC(C)C)[C@@H](C)CC)C(C)C)[C@@H](C)O)C(C)C)C(=O)N[C@@H](Cc1ccccc1)C(=O)N[C@@H](CO)C(=O)N[C@@H](C)C(=O)N[C@H](C(=O)N[C@@H](C)C(=O)NCC(=O)N[C@@H](C)C(=O)N[C@@H](CCSC)C(=O)N[C@H](C(=O)N1CCC[C@H]1C(=O)N[C@@H](CO)C(=O)O)[C@@H](C)O)C(C)C [LKIPGFVKDTLKKVAKGIFSAVAGAMTPS] |  | 40 µM (≈ 119 µg/mL) |  |  | ≥ 80 µM | 20 µM (≈ 59.5 µg/mL) | 20 µM (≈ 59.5 µg/mL) | 20 µM (≈ 59.5 µg/mL)
5 | CC[C@H](C)[C@H](NC(=O)[C@H](CC(C)C)NC(=O)[C@@H](NC(=O)[C@H](Cc1ccccc1)NC(=O)[C@@H](NC(=O)[C@@H](N)CCC(N)=O)C(C)C)[C@@H](C)O)C(=O)N[C@@H](CCCCN)C(=O)NCC(=O)N[C@@H](C)C(=O)N[C@H](C(=O)N[C@@H](CCC(N)=O)C(=O)N[C@@H](CC(C)C)C(=O)N[C@H](C(=O)N[C@@H](CCCN=C(N)N)C(=O)N[C@@H](CCCCN)C(=O)N[C@H](C(=O)N[C@@H](CC(C)C)C(=O)NCC(=O)N[C@@H](CCC(=O)O)C(=O)N[C@@H](CCC(N)=O)C(=O)O)[C@@H](C)O)[C@@H](C)CC)[C@@H](C)O [QVFTLIKGATQLIRKTLGEQ] | 3.56 µM (≈ 8 µg/mL) | 3.56 µM (≈ 8 µg/mL) | 1.78 µM (≈ 4 µg/mL) | 7.13 µM (≈ 16 µg/mL) |  |  |  | 

These reach a lower MIC [2]. Values come first.

Row | MIC [1] | MIC [2] | MIC [3] | MIC [4] | MIC [5] | MIC [6] | MIC [7] | MIC [8] | Structure (SMILES)
6 | 2.22 µM (≈ 8.5 µg/mL) | 1.13 µM (≈ 4.3 µg/mL) | 2.22 µM (≈ 8.5 µg/mL) | 1.13 µM (≈ 4.3 µg/mL) |  |  |  |  | CC[C@H](C)[C@H](NC(=O)CN)C(=O)N[C@@H](Cc1ccccc1)C(=O)N[C@H](C(=O)N[C@@H](CC(C)C)C(=O)N[C@H](C(=O)N[C@@H](CCCCN)C(=O)NCC(=O)N[C@@H](C)C(=O)N[C@@H](C)C(=O)N[C@@H](CCCCN)C(=O)N[C@@H](CC(C)C)C(=O)N[C@H](C(=O)NCC(=O)N[C@@H](CCCCN)C(=O)N[C@H](C(=O)N[C@H](C(=O)N[C@@H](C)C(=O)N[C@@H](CCCCN)C(=O)N[C@@H](CCC(=O)O)C(=O)N[C@@H](C)C(=O)NCC(=O)N[C@@H](CCCCN)C(=O)N[C@H](C(=O)NCC(=O)N[C@@H](CC(C)C)C(=O)N[C@@H](CCC(=O)O)C(=O)N[C@@H](CC(C)C)C(=O)N[C@@H](CCSC)C(=O)N[C@@H](C)C(=O)N[C@H]1CSSC[C@@H](C(=O)O)NC(=O)[C@H](CCC(N)=O)NC(=O)[C@H](CC(N)=O)NC(=O)[C@H]([C@@H](C)O)NC(=O)[C@H]([C@@H](C)CC)NC(=O)[C@H](CCCCN)NC1=O)[C@@H](C)O)C(C)C)[C@@H](C)O)[C@@H](C)CC)[C@@H](C)CC)[C@@H](C)O [GIFTLIKGAAKLIGKTVAKEAGKTGLELMACKITNQC]
7 | 0.555 µM (≈ 2.7 µg/mL) | 1.11 µM (≈ 5.4 µg/mL) | 1.11 µM (≈ 5.4 µg/mL) | 0.555 µM (≈ 2.7 µg/mL) |  |  |  |  | CC[C@H](C)[C@H](NC(=O)CNC(=O)[C@H](CCCCN)NC(=O)CNC(=O)[C@H](C)NC(=O)[C@H](Cc1ccccc1)NC(=O)[C@H](CCCCN)NC(=O)[C@H](CO)NC(=O)[C@H](Cc1ccccc1)NC(=O)[C@H](CC(C)C)NC(=O)CN)C(=O)N[C@@H](CCCCN)C(=O)N[C@@H](CC(=O)O)C(=O)N[C@@H](CC(C)C)C(=O)N[C@H](C(=O)N[C@@H](Cc1ccccc1)C(=O)N[C@@H](CCCCN)C(=O)NCC(=O)N[C@H](C(=O)N[C@@H](CCCCN)C(=O)N[C@@H](Cc1cnc[nH]1)C(=O)N[C@H](C(=O)NCC(=O)N[C@@H](CCCCN)C(=O)N[C@@H](CCC(=O)O)C(=O)N[C@H](C(=O)NCC(=O)N[C@@H](CCSC)C(=O)N[C@@H](CC(=O)O)C(=O)N[C@H](C(=O)N[C@H](C(=O)N[C@@H](CCCN=C(N)N)C(=O)N[C@H](C(=O)NCC(=O)N[C@H](C(=O)N[C@@H](CC(=O)O)C(=O)N[C@H](C(=O)N[C@@H](C)C(=O)NCC(=O)N[C@H]1CSSC[C@@H](C(=O)O)NC(=O)[C@H](CCC(=O)O)NC(=O)CNC(=O)[C@H](CCCCN)NC(=O)[C@H]([C@@H](C)CC)NC(=O)[C@H](CCCCN)NC1=O)C(C)C)[C@@H](C)CC)[C@@H](C)O)[C@@H](C)CC)C(C)C)C(C)C)[C@@H](C)CC)C(C)C)[C@@H](C)CC [GLFSKFAGKGIKDLIFKGVKHIGKEVGMDVIRTGIDVAGCKIKGEC]
8 | 0.435 µM (≈ 2.1 µg/mL) | 0.849 µM (≈ 4.1 µg/mL) | 0.849 µM (≈ 4.1 µg/mL) | 1.7 µM (≈ 8.2 µg/mL) |  |  |  |  | CC[C@H](C)[C@H](NC(=O)CN)C(=O)N[C@@H](Cc1ccccc1)C(=O)N[C@@H](CO)C(=O)N[C@@H](CCCCN)C(=O)N[C@H](C(=O)N[C@@H](CO)C(=O)NCC(=O)N[C@@H](CCCCN)C(=O)N[C@@H](C)C(=O)N[C@H](C(=O)N[C@@H](CCCCN)C(=O)N[C@@H](CC(N)=O)C(=O)N[C@@H](CC(C)C)C(=O)N[C@@H](Cc1ccccc1)C(=O)N[C@H](C(=O)N[C@@H](CCCCN)C(=O)NCC(=O)N[C@@H](C)C(=O)N[C@@H](CCCCN)C(=O)N[C@@H](CC(N)=O)C(=O)N[C@H](C(=O)NCC(=O)N[C@@H](CCCCN)C(=O)N[C@@H](CCC(=O)O)C(=O)N[C@H](C(=O)NCC(=O)N[C@@H](CCSC)C(=O)N[C@@H](CC(=O)O)C(=O)N[C@H](C(=O)N[C@H](C(=O)N[C@@H](CCCN=C(N)N)C(=O)N[C@H](C(=O)NCC(=O)N[C@@H](CCSC)C(=O)N[C@@H](CC(=O)O)C(=O)N[C@H](C(=O)N[C@H](C(=O)NCC(=O)N[C@H]1CSSC[C@@H](C(=O)O)NC(=O)[C@H](CCC(=O)O)NC(=O)CNC(=O)[C@H](CCCCN)NC(=O)[C@H]([C@@H](C)CC)NC(=O)[C@H](CCCCN)NC1=O)C(C)C)C(C)C)[C@@H](C)O)C(C)C)C(C)C)C(C)C)C(C)C)[C@@H](C)CC)[C@@H](C)CC)[C@@H](C)CC [GIFSKISGKAIKNLFIKGAKNVGKEVGMDVVRTGMDVVGCKIKGEC]
9 | 0.266 µM (≈ 1.3 µg/mL) | 0.266 µM (≈ 1.3 µg/mL) | 0.512 µM (≈ 2.5 µg/mL) | 0.512 µM (≈ 2.5 µg/mL) |  |  |  |  | CC[C@H](C)[C@H](NC(=O)CNC(=O)[C@H](CCCCN)NC(=O)CNC(=O)[C@H](CO)NC(=O)[C@H](Cc1ccccc1)NC(=O)[C@H](CCCCN)NC(=O)[C@H](CO)NC(=O)[C@H](Cc1ccccc1)NC(=O)[C@H](CC(C)C)NC(=O)CN)C(=O)N[C@@H](CCCCN)C(=O)N[C@@H](CC(N)=O)C(=O)N[C@@H](Cc1ccccc1)C(=O)N[C@@H](CC(C)C)C(=O)N[C@H](C(=O)N[C@@H](CCCCN)C(=O)NCC(=O)N[C@H](C(=O)N[C@@H](CCCCN)C(=O)N[C@@H](Cc1cnc[nH]1)C(=O)N[C@H](C(=O)NCC(=O)N[C@@H](CCCCN)C(=O)N[C@@H](CCC(=O)O)C(=O)N[C@H](C(=O)NCC(=O)N[C@@H](CCSC)C(=O)N[C@@H](CC(=O)O)C(=O)N[C@H](C(=O)N[C@H](C(=O)N[C@@H](CCCN=C(N)N)C(=O)N[C@H](C(=O)NCC(=O)N[C@H](C(=O)N[C@@H](CC(=O)O)C(=O)N[C@H](C(=O)N[C@@H](C)C(=O)NCC(=O)N[C@H]1CSSC[C@@H](C(=O)O)NC(=O)[C@H](CCC(=O)O)NC(=O)CNC(=O)[C@H](CCCCN)NC(=O)[C@H]([C@@H](C)CC)NC(=O)[C@H](CCCCN)NC1=O)C(C)C)[C@@H](C)CC)[C@@H](C)O)[C@@H](C)CC)C(C)C)C(C)C)[C@@H](C)CC)C(C)C)[C@@H](C)CC [GLFSKFSGKGIKNFLIKGVKHIGKEVGMDVIRTGIDVAGCKIKGEC]
